Experiments:
Format in all cases: cell-based, Staphylococcus aureus
S. aureus PC-1 [1] = test: Cell morphology by transmission electron microscopy; conditions: penicillin G 8 μg/ml alone; 4-h
Description: Bacterial cells were grown overnight on MHA or MHB containing sub-MICs of penicillin G with or without LF or LFC. Microorganisms were prepared for transmission electron microscopy by fixation with glutaraldehyde followed by ferritin labelling. This method allows good- preservation of capsular material. Briefly, bacterial cells grown in the presence or absence of antibiotics were fixed in cacodylate buffer (0.1 M, pH 7.0) containing 5% (v/v) glutaraldehyde, for 2 h at 20° C. Fixed microorganims were suspended in cacodylate buffer and allowed to react with the polycationic ferritin (Sigma Chemicals, St-Louis, Mo.; final concentration 1.0 mg/ml) for 30 min at 20° C. The reaction was slowed down by 10-fold dilution with buffer, and the microorganisms were centrifuged and washed three times in cacodylate buffer. Bacterial cells were then immobilized in 4% (w/v) agar, washed 5 times in cacodylate buffer and post-fixed with 2% (w/v) osmium tetroxide for 2 h. Washings were repeated as above, and the samples dehydrated in a graded series of acetone washes. Samples were then washed twice in propylene oxide and embedded in Spurr low-viscosity resin. Thin sections were post-stained with uranyl acetate and lead citrate and examined with an electron microscope (Philips 201) at an accelerating voltage of 60 kV.
Bacterial cells of PC-1 (a constitutively high producing β-lactamase strain) were grown overnight in MHB containing 8 μg/ml of penicillin G, 16 μg/ml of LFC alone or in combination for 4-h at 37° C. with agitation at 150 rpm. Bacteria cell morphology was evaluated by transmission electron microscopy after fixation and ferritin labelling method as previously described.

S. aureus ATCC 25923 = test: Bacterial growth in MHB
Description: (§1) The effect of LF or LFC at concentration sub-MICs alone or in combination with sub-MICs of antibiotics on bacterial growth rate of S. aureus, E. coli and K. pneumoniae was determined by monitoring bacterial cultures in MHB with the O.D.600 nm or by the count of colony forming unit per ml (cfu/ml). A volume of 2.5 ml of overnight cultures in MHB adjusted to 0.5-1 McFarland standard in saline were used to inoculate a final volume of 25 ml of fresh MHB containing the desired concentration of tested compounds. All flasks were then incubated at 37° C. with agitation (200 rpm) for 9 h. Aliquots were removed every hour to determine the culture turbidity using the spectrophotometer Philips PU 8800 (Pye Unican Ltd, Cambridge, UK). The combined antibiotic effect on bacterial growth was also determined using concentrations of LF in the presence of different concentrations of antibiotics. Briefly, a volume of 3 ml of fresh MHB containing desired concentration of drugs was adjusted to an optical density of 0.4 at 540 nm after an overnight culture. The culture was then incubated at 37° C with agitation (200 rpm). After incubation, aliquots were removed to determine the culture turbidity (OD540nm) or cfu/ml. To determine the influence of the level of iron on of the growth inhibition by the test compound, 5 μM of FeCl3 were added to the media.

S. aureus PC-1 [2] = test: Bacterial growth in MHB
Description: as §1

[3] = tested on: S. aureus strains SHY97-4242 and RFT-5; test: Bacterial growth in MHB
Description: as §1

[4] = sub-MIC penicillin G (1/4 to 1/16 MIC) with 1 mg/ml LF, P<0.01

Structure (SMILES): CC1(C)S[C@@H]2[C@H](NC(=O)Cc3ccccc3)C(=O)N2[C@H]1C(=O)O [penicillin G, Penicillin G]
- cell morphology (S. aureus PC-1 [1]): no effects on morphology
- growth (S. aureus ATCC 25923; penicillin G combined with 32 μg/ml LFC (⅛ MIC)): Complete growth inhibition
- growth rate (S. aureus ATCC 25923; [4]): important growth rate reductions
- growth (S. aureus PC-1 [2]; penicillin G combined with 64 μg/ml LFC (⅛ MIC)): Complete growth inhibition
- growth rate (S. aureus PC-1 [2]; sub-MIC of penicillin G alone): did not significantly affect growth rate
- growth rate (S. aureus PC-1 [2]; [4]): important growth rate reductions
- effect of addition of iron on growth inhibition ([3]; combination of penicillin to LF): did not affect
- growth inhibitory activity of penicillin ([3]; in the presence of LF, P<0.01): enhanced
- growth ([3]; penicillin G alone, P<0.001): reduced the growth
